Assay results taken from publication PMC12464334, “Reprogramming of cancer metabolism via photoresponsive nano-PROTAC enhances pyroptosis-mediated immunotherapy” (Signal Transduction and Targeted Therapy, 2025).
Like-named read-outs stand apart in the source and are kept apart here.

Tests used:
[1] = molecular target: T1, HK2 (Mus musculus, UniProt O08528); experiment: TPD analysis: intracellular HK2 level; format: cell-based, murine; settings: for time-dependent HK2 expression after washout: TNBC cells, 1 µM, 12 h treatment then washout, n = 3
T1 construct: endogenous in cells; host or cells: 4T1 cells
T1 sequence (O08528 1-917): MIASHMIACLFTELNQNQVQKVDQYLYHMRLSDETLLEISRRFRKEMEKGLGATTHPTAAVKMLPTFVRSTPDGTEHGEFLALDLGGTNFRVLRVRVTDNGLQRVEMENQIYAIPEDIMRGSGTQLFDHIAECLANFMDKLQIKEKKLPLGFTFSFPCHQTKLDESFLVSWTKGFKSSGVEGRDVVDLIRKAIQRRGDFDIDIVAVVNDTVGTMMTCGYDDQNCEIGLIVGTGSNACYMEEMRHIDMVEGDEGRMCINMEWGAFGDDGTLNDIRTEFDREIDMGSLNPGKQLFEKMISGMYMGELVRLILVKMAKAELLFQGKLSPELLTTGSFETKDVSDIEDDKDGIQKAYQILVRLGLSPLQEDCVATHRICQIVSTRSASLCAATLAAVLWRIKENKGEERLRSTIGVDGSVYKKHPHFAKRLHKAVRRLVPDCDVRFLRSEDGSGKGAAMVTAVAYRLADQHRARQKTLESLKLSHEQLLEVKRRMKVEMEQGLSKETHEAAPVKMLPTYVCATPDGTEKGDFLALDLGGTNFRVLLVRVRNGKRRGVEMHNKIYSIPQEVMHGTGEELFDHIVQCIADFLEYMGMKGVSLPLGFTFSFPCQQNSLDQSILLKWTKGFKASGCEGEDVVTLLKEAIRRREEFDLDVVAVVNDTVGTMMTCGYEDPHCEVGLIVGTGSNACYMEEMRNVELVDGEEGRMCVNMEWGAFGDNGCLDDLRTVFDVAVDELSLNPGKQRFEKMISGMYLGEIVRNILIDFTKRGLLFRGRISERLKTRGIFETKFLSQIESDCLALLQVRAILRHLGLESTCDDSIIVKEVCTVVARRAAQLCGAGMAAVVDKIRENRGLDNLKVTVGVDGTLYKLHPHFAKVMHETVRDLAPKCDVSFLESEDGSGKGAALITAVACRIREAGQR

[2] = ROS generation, DPBF bleaching assay under 671 nm laser; format: physicochemical; settings: 671 nm laser 40 mW, calculated relative to VPF, n = 5
Protocol: The morphology in distilled water was observed via transmission electron microscopy (TEM; Philips). UV‒vis and fluorescence spectra were measured via a UV‒vis spectrometer (Agilent Technologies) and a fluorescence spectrometer (Hitachi), respectively. ROS generation was quantified via a bleaching assay using 1,3-diphenylisobenzofuran (DPBF; Cat. No. 105481; Sigma Aldrich).
(§1) AVPF and ANanoTAC represent the absorbance at the excitation wavelength (671 nm), whereas SVPF and SNanoTAC denote the slopes of the absorbance intensity over time. […] The resulting data were plotted, and kcat/KM was determined via Prism 10 software (GraphPad).

[3] = molecular target: T2, Cat-B (Homo sapiens, UniProt P07858); experiment: Enzymatic cleavage by Cat-B (LC/MS, HPLC); format: biochemical; settings: pH 5.5 MES buffer, 37 °C
T2 construct: purchased R&D systems 953CY
Protocol: as §1

[4] = molecular target: T3, Cat-E (Homo sapiens, UniProt P14091); experiment: Enzymatic cleavage by Cat-E; format: biochemical; settings: pH 5.5 MES buffer, 37 °C, LC/MS
T3 construct: purchased R&D Systems 1294-AS
T3 sequence (P14091 54-396): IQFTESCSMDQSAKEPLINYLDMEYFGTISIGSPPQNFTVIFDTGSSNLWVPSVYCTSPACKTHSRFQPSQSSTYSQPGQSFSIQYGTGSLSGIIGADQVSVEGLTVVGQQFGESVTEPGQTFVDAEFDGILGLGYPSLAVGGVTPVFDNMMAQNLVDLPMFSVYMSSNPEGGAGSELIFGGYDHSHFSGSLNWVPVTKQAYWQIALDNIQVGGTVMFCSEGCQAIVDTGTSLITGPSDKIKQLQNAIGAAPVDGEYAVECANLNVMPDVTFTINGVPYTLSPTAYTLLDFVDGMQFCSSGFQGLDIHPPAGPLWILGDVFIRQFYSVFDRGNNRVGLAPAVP
Protocol: as §1, with “The cleavage rate of each sample was calculated by comparing the peak area to that of an equivalent amount of NanoTAC prior to enzyme incubation. The” for “The”

[5] = molecular target: T4, Cat-L (Homo sapiens, UniProt P07711); experiment: Enzymatic cleavage by Cat-L; format: biochemical; settings: pH 5.5 MES buffer, 37 °C, LC/MS
T4 construct: purchased R&D Systems 952-CY
Protocol: as §1, with “The cleavage rate of each sample was calculated by comparing the peak area to that of an equivalent amount of NanoTAC prior to enzyme incubation. The” for “The”

[6] = molecular target: T5, Cat-D (Homo sapiens, UniProt P07339); experiment: Enzymatic cleavage by Cat-D; format: biochemical; settings: pH 5.5 MES buffer, 37 °C, LC/MS
T5 construct: purchased R&D Systems 1014-AS
Protocol: as §1, with “The cleavage rate of each sample was calculated by comparing the peak area to that of an equivalent amount of NanoTAC prior to enzyme incubation. The” for “The”

[7] = molecular target: T6, caspase-3 (CASP3) (Homo sapiens, UniProt P42574); experiment: Enzymatic cleavage by caspase-3; format: biochemical; settings: pH 5.5 MES buffer, 37 °C, LC/MS
T6 construct: purchased R&D Systems 707-C3/CF
T6 sequence (P42574 29-175 limits assumed): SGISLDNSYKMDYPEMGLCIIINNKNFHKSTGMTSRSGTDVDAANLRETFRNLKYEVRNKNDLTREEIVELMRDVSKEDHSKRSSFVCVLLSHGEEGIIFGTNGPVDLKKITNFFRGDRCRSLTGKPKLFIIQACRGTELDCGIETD
T6 sequence (P42574 176-277 limits assumed): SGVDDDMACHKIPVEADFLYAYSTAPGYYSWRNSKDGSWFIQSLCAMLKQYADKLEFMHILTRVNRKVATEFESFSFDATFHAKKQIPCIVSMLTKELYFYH
Protocol: as §1, with “The cleavage rate of each sample was calculated by comparing the peak area to that of an equivalent amount of NanoTAC prior to enzyme incubation. The” for “The”

[8] = molecular target: T7, matrix metalloproteinase-9 (MMP-9) (Homo sapiens, UniProt P14780); experiment: Enzymatic cleavage by MMP-9; format: biochemical; settings: pH 5.5 MES buffer, 37 °C, LC/MS
T7 construct: purchased R&D Systems 911-MP
Protocol: as §1, with “The cleavage rate of each sample was calculated by comparing the peak area to that of an equivalent amount of NanoTAC prior to enzyme incubation. The” for “The”

[9] = system: 4T1 cells; experiment: Intracellular ROS generation (DCFH-DA); format: cell-based, murine; settings: 1 μM, 12 h, +L (40 mW, 500 s), hypoxia 1% O2, DCFH-DA
Protocol: Diacetyldichlorofluorescein (DCFH-DA; Cat. No. 4091-99-0, Sigma Aldrich) was used to detect intracellular ROS. […] The cells were then incubated with DCFH-DA for 30 min and subsequently exposed to photoirradiation for 500 s at a power of 40 mW. NIRF images were captured via CLSM.

[10] = system: orthotopic 4T1 TNBC tumor; experiment: Tumor inhibition in orthotopic TNBC mouse model; format: in vivo; settings: for complete regression (CR), mice with CR / mice in group: i.v. equivalent 5 mg/kg VPF, n = 5
Protocol: BL imaging was conducted every 4 days following the intraperitoneal injection of D-luciferin. The tumor volumes and body weights were measured every 2 days. Mice with tumor volumes exceeding 500 mm^3 were considered deceased.

[11] = system: orthotopic 4T1 TNBC tumor; settings: tumors on day 3, flow cytometry, n = 5
Protocol: Following treatment of the TNBC mouse model described above, tumor tissues were collected on day 3 for immune cell population analyses. Single cells were isolated from the tumor samples via a tumor dissociation kit (Cat. No. 130-096-730; Miltenyi Biotechnology). An equal number of cells were incubated with FcBlock (Cat. No. 553142, BD Biosciences) for 5 min to prevent nonspecific IgG binding and then stained with appropriate antibodies to identify the populations of CRT-positive tumor cells (CD45^−CRT^+), mature DCs, CTLs, and regulatory T cells. As in the coculture study, HMGB1 and HSP70 in the tumor supernatants were assessed by western blot, while IL-18, IL-1β, TNF-α, IFN-γ, and IL-10 were measured via ELISA kits.

[12] = system: rechallenged 4T1 TNBC; settings: day 15 after tumor rechallenge, ELISA, n = 3
Protocol: Sixteen days post-treatment, TNBC mice were inoculated with 4T1 cells (2 × 10^5 cells per mouse) into the fourth mammary fat pad opposite the primary TNBC site. Rechallenged tumor volumes were measured every 2 days. Fifteen days after tumor rechallenge, the population of splenic Tem cells (CD3^+; CD8^+; CD44^+ [Cat. No. 103016, Biolegend]; CD62L^low [Cat. No. 104407, Biolegend]) was analyzed via flow cytometry. Finally, the serum levels of IFN-γ, IL-6, and TNF-α were quantified via ELISA.

[13] = system: 4T1 cells; settings: without photoirradiation, absence (migration) or presence (invasion) of collagen, n = 5
[14] = set-up: method as in doi:10.1016/j.dyepig.2020.108598; settings: reference value used for calculation; cited from earlier work

T7 sequence (P14780 94-707): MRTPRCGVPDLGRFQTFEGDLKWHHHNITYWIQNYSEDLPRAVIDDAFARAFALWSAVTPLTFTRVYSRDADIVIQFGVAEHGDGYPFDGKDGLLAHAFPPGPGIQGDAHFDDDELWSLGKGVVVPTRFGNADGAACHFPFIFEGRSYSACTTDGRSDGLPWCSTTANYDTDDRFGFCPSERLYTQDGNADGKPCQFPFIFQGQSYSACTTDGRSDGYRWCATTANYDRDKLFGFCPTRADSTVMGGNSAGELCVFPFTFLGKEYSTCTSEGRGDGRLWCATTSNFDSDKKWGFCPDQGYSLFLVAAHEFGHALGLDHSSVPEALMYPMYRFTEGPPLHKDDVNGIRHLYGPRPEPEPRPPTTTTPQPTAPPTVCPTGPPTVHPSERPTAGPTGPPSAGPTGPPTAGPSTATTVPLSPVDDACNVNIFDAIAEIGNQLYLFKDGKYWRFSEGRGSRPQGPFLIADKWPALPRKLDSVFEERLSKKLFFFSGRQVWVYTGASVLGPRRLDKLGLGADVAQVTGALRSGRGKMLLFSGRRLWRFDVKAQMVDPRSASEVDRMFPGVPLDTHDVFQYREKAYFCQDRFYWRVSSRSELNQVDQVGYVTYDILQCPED
T4 sequence (P07711 114-333): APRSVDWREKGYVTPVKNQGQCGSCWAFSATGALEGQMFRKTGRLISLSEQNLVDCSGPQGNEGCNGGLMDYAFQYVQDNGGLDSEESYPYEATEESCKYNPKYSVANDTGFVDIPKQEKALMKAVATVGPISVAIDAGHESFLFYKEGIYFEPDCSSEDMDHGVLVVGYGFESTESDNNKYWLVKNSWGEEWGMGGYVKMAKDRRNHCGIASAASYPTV
T5 sequence (P07339 65-412): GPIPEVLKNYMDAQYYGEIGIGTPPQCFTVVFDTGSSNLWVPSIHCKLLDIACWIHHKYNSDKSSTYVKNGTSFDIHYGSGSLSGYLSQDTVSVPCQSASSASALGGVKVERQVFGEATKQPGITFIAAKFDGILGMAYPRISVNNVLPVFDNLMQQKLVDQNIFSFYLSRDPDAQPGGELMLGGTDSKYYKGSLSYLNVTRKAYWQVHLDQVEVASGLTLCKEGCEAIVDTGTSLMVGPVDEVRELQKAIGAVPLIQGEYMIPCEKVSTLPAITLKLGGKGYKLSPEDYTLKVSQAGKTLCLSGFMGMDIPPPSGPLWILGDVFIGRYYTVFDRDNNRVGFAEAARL

O=C(O)c1nn(Cc2ccc(Cl)cc2Cl)c2ccccc12 [lonidamine, reference compound]
time-dependent HK2 expression after washout [1]: initial reduction in the intracellular HK2 level followed by eventual regeneration

VPF-KRRPIYPALAK-lonidamine [NanoTAC]
ROS quantum yield (Φ) [2]: ≈ 0.7823
cleavage in presence of Cat-B with irreversible cysteine protease inhibitor ([3]; Cat-B with Z-FA-FMK, LC/MS): no detectable cleavage
catalytic efficiency (kcat/KM) ([3]; NanoTAC 5-80 μM, 5 μg Cat-B, HPLC): 27,898 M^−1S^−1
time for conversion into PROTAC and lysine-conjugated VPF (K-VPF) with Cat-B ([3]; LC/MS): ≤ 1 h
cleavage by Cat-E [4]: no cleavage behavior
cleavage by Cat-L [5]: no cleavage behavior
cleavage by Cat-D [6]: no cleavage behavior
cleavage by CASP3 [7]: no cleavage behavior
cleavage by MMP-9 [8]: no cleavage behavior
intracellular HK2 level after treatment ([1]; 4T1 cells, 1 μM, 12 h, anti-HK2 staining, CLSM): significantly decreased intracellular HK2 levels
time-dependent HK2 expression after washout [1]: sustained degradation of the target protein
reduction of ROS production under hypoxia compared with normoxia [9]: 36.1%
survival of TNBC mice ([10]; +L, n = 5, log-rank test): significantly prolonged survival
complete regression (CR), mice with CR / mice in group ([10]; +L (200 mW, 15 min)): 3/5
complete regression (CR), mice with CR / mice in group ([10]; −L): 0/5
intratumoral Treg population, NanoTAC (+L) relative to NanoTAC (−L) [11]: 72.01%
intratumoral Treg population, NanoTAC (+L) relative to VPF (+L) [11]: 44.81%
serum IFN-γ, fold of NanoTAC (+L)-treated CR mice over naive mice [12]: 1.33 fold
serum IL-6, fold of NanoTAC (+L)-treated CR mice over naive mice [12]: 1.32 fold
serum TNF-α, fold of NanoTAC (+L)-treated CR mice over naive mice [12]: 1.4 fold
migratory and invasive phenotypes [13]: reduced migratory and invasive phenotypes

verteporfin [VPF, reference compound]
reduction of ROS production under hypoxia compared with normoxia [9]: 79.1%
complete regression (CR), mice with CR / mice in group ([10]; +L (200 mW, 15 min)): 0/5
ROS quantum yield (Φ) [14]: 0.78
